According to ChEMBL document CHEMBL1765070, “Structure-based design of potent and selective 3-phosphoinositide-dependent kinase-1 (PDK1) inhibitors” (J Med Chem, 2011):

Experiments:
[1] = molecular target: T1, 3-phosphoinositide-dependent protein kinase 1 (Homo sapiens, UniProt O15530); assay: Inhibition of PDK1
T1 sequence (O15530 whole entry): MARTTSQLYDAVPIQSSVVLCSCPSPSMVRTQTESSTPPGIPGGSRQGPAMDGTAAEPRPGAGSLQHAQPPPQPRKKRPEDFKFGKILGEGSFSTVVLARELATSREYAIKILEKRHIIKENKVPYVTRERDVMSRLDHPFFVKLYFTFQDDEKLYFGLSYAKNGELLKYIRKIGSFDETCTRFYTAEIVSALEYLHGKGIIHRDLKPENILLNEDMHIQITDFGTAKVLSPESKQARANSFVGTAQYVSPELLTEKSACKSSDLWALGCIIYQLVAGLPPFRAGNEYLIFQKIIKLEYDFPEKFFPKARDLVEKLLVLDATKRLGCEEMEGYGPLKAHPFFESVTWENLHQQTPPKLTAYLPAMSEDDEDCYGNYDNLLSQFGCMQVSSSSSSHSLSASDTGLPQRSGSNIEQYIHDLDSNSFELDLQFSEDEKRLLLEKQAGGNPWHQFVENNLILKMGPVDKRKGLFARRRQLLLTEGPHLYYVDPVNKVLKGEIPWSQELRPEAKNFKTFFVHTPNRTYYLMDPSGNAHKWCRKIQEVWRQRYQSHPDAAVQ

Aurora kinase A = molecular target: T2, Aurora kinase A (Homo sapiens, UniProt O14965); assay: Inhibition of aurora A
T2 sequence (O14965 whole entry): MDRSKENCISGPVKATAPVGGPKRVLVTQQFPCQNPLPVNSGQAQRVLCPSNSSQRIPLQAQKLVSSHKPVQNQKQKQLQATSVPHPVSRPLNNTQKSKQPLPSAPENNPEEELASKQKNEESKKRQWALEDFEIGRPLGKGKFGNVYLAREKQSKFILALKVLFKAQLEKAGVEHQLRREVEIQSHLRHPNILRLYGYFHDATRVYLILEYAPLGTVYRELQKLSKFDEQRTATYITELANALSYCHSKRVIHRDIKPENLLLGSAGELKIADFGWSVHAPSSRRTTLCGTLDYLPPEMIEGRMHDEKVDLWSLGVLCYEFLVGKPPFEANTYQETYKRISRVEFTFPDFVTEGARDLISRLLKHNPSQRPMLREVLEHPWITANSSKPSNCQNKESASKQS

Aurora kinase B = Aurora kinase B (Homo sapiens, UniProt Q96GD4); assay: Inhibition of aurora B
TGF-beta receptor type-1 = molecular target: T3, TGF-beta receptor type-1 (Homo sapiens, UniProt P36897); assay: Inhibition of ALK5; conditions: read-out: pIC50 (converted)
T3 sequence (P36897 whole entry): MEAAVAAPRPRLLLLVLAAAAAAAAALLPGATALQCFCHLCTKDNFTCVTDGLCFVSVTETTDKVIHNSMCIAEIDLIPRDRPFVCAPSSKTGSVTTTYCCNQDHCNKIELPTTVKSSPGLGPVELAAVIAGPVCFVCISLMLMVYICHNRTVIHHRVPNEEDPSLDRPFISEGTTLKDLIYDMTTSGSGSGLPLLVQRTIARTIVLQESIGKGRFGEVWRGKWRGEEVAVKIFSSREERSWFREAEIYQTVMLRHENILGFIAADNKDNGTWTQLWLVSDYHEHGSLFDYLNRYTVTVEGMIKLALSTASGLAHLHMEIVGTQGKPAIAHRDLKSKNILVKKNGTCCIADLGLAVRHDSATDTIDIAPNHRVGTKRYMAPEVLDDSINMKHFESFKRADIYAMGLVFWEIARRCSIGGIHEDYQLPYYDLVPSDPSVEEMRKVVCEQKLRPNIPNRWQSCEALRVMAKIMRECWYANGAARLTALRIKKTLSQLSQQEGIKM

[2] = molecular target: Rho-associated protein kinase 1 (Homo sapiens, UniProt Q13464); assay: Inhibition of ROCK1
[3] = molecular target: T1, 3-phosphoinositide-dependent protein kinase 1; assay: Inhibition of PDK1-mediated AKT phosphorylation at Thr308 residue in human PC3 cells by ELISA; format: cell-based, PC-3
[4] = molecular target: T1, 3-phosphoinositide-dependent protein kinase 1; assay: Inhibition of PDK1-mediated RSK phosphorylation at Ser221 residue in human PC3 cells by ELISA; format: cell-based, PC-3
K562 = assay: Antiproliferative activity against human K562 cells; format: functional, cell-based
OCI-AML2 = assay: Antiproliferative activity against human OCI-AML2 cells; format: functional, cell-based
[5] = Antiproliferative activity against human OCI-AML3 cells; format: functional, cell-based; conditions: OCI-AML-3
HEL = assay: Antiproliferative activity against human HEL 92.1.7 cells; format: functional, cell-based
[6] = Antiproliferative activity against human F-36P cells; format: functional, cell-based

Aurora kinase B, sequence (Q96GD4 whole entry): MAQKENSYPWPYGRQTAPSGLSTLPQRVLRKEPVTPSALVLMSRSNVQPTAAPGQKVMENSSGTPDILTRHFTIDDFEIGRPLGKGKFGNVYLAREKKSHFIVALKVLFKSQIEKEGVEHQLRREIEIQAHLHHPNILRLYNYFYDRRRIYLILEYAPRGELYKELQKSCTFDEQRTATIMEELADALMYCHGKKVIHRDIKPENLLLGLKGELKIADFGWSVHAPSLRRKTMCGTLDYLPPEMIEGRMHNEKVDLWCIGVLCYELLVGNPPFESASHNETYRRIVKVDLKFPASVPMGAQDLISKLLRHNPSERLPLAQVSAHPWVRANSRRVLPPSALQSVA
Rho-associated protein kinase 1, sequence (Q13464 whole entry): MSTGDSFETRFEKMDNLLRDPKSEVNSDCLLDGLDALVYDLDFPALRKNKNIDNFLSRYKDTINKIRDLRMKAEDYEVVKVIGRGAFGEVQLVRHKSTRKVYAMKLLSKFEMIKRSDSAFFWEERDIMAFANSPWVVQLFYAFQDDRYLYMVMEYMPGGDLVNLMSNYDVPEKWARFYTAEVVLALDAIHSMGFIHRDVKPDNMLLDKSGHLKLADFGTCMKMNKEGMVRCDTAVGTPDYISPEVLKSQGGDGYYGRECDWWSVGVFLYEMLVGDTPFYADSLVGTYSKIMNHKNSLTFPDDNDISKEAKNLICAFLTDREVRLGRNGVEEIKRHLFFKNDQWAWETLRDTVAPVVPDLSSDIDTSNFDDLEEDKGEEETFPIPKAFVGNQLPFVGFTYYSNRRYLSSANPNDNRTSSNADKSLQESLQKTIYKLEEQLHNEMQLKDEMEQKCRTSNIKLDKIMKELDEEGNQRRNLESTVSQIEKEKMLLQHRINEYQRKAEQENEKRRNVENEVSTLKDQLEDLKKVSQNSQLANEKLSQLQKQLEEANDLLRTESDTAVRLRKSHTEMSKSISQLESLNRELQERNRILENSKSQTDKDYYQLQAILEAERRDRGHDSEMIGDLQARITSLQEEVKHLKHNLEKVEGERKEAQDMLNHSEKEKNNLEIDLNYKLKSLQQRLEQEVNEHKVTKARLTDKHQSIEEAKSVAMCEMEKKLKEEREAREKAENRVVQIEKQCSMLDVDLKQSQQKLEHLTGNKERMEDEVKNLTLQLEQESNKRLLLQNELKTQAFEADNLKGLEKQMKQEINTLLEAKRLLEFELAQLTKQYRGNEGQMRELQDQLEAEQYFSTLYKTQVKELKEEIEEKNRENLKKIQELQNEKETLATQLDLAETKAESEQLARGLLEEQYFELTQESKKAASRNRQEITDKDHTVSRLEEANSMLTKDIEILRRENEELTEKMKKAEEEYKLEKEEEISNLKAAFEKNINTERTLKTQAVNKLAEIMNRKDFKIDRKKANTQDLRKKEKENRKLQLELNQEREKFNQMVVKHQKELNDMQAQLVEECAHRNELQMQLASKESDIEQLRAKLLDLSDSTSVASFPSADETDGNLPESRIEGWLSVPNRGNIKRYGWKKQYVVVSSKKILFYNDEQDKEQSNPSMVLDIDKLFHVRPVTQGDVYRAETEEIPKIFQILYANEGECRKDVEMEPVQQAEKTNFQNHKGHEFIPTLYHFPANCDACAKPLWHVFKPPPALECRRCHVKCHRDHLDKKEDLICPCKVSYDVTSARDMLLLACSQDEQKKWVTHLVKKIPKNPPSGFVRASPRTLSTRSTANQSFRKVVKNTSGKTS

| SMILES | IC50 [1] [nM] | IC50 (Aurora kinase A) [nM] | IC50 (Aurora kinase B) [nM] | IC50 (TGF-beta receptor type-1) [nM] | IC50 [2] [nM] | IC50 [3] [nM] | IC50 [4] [nM] | IC50 (K562) [nM] | IC50 (OCI-AML2) [nM] | IC50 [5] [nM] | IC50 (HEL) [nM] | IC50 [6] [nM] |
| --- | --- | --- | --- | --- | --- | --- | --- | --- | --- | --- | --- | --- |
| CNc1nc(-c2ccc3c(N)n[nH]c3c2)cc(N2C[C@@H](C(=O)NC3CCCCC3)OC[C@H]2C)n1 | 3.16 | > 10000 | 5010 | > 10000 | > 10000 | 24 | 30 | > 30000 | 460 | 690 | 19000 | 390 |
| C[C@@H]1C[C@@H](NC(=O)OC(C)(C)C)CN(c2cc(-c3ccc4c(N)[nH]nc4c3)nc(N)n2)C1 | – | 398 | 1580 | > 10000 | > 10000 | – | – | 24000 | 690 | 400 | 18000 | 820 |
| CC[C@@H]1CO[C@H](C(=O)Nc2ccccc2)CN1c1cc(-c2ccc3c(N)n[nH]c3c2)nc(NC)n1 | 3.16 | 7940 | 1580 | > 10000 | 3160 | 57 | 88 | – | – | – | – | – |
| CC[C@@H]1CO[C@H](C(=O)NC2CCCCC2)CN1c1cc(-c2ccc3c(N)n[nH]c3c2)nc(NC)n1 | 6.31 | > 10000 | 1580 | > 10000 | > 10000 | 85 | 102 | > 30000 | 890 | 760 | 16000 | 460 |
